Data published in patent publication US20100190713A1, “USE OF THE PEPTIDE THYMOSIN BETA 4 ALONE OR IN COMBINATION WITH CECROPIN A AS A THERAPEUTIC AGENT” (priority 2007, published 2010).
Where no end group is shown, it is not given here.

How the values were obtained:
[1] = system: hepatitis B virus (HBV) ayw strain; assay: HBV experimental assay system, HepG2-2.2.15, secreted HBV DNA by TaqMan PCR; format: cell-based; details: 10 micrograms per ml; HepG2-2.2.15, six days
[2] = system: RAW 264.7 (Mouse leukaemic monocyte macrophage cell line) cells; assay: Phagocytosis assay (Fluorescein-labeled Escherichia coli, flow cytometry); format: cell-based; details: 10 micrograms per ml
Procedure: RAW 264.7 (Mouse leukaemic monocyte macrophage cell line) cells were obtained from ATCC and grown in RPMI 1640 medium containing 10% FBS. Cells were incubated in 12×75 mm tubes at 37° C. with test peptides—10 micrograms per ml—for 30 min prior to adding Fluorescein-labeled Escherichia coli bacteria as the agent to be ingested. After the cells were incubated for additional 60 min at 37° C. and allowed to ingest the Fluorescein-labeled Escherichia coli bacteria, cells were fixed with 1% paraformaldehyde. The samples were then analyzed by flow cytometry to determine the amount of phagocytosis as a function of brightness (the greater the phagocytic activity, the more fluorescence in the macrophage population). Data are reported as % positive and the mean fluorescence intensity (MFI) of positively stained cells.

[3] = system: murine spleen cells; assay: Th1/Th2 cytokine profiling assay (Ovalbumin-restimulated spleen cells, CBA kit); format: cell-based, Balb/c mice; details: 10 micrograms per ml, 72 hours
[4] = system: HCMV strain AD169; assay: HCMV plaque formation assay in MRC-5 cells; format: cell-based; details: 10 micrograms per ml, 7-10 days
Excerpt: Ganciclovir was used as positive control.

[5] = system: Primary Human endothelial cells (HUVEC); assay: Endothelial cell migration assay; format: cell-based; details: 10 micrograms per ml, 22 hours
Procedure: Thereafter, designated concentration of testing peptides—10 micrograms per ml—was added in duplicate wells.

[6] = system: HUVEC; assay: Endothelial tube formation assay; format: cell-based, human; details: 10 micrograms per ml, 20 hours
Excerpt: Positive control wes vehicle only.

Row | Substance | inhibition of HBV replication as compared to the virus control infection [1] | induction of phagocytosis as compared to the virus control experiment [2] | production of IFN-γ (decreased by) [3] | production of IL-2 (decreased by) [3] | production of IL-4 (induced by) [3] | production of IL-5 (decreased by) [3] | production of TNF-alpha (change) [3] | inhibition of HCMV plaque formation as compared to the virus control experiment [4] | inhibition of the migration of human endothelial cells [5] | inhibition of the tube formation of human endothelial cells [6]
1 | Ac-Ser-Asp-Lys-Pro-Asp-Met-Ala-Glu-Ile-Glu-Lys-Phe-Asp-Lys-Ser-Lys-Leu-Lys-Lys-Thr-Glu-Thr-Gln-Glu-Lys-Asn-Pro-Leu-Pro-Ser-Lys-Glu-Thr-Ile-Glu-Gln-Glu-Lys-Gln-Ala-Gly-Glu-Ser-OH (SDKPDMAEIEKFDKSKLKKTETQEKNPLPSKETIEQEKQAGES; printed: Ser-Asp-Lys-Pro-Asp-Met-Ala-Glu-Ile-Glu-Lys-Phe-Asp-Lys-Ser-Lys-Leu-Lys-Lys-Thr-Glu-Thr-Gln-Glu-Lys-Asn-Pro-Leu-Pro-Ser-Lys-Glu-Thr-Ile-Glu-Gln-Glu-Lys-Gln-Ala-Gly-Glu-Ser-) [Peptide 1] | no effect | 45.7% | 52.7% | did not significantly change | 31.6% | did not significantly change | did not significantly change |  |  | 
2 | Lys-Trp-Lys-Leu-Phe-Lys-Lys-Ile-Glu-Lys-Val-Gly-Gln-Asn-Ile-Arg-Asp-Gly-Ile-Ile-Lys-Ala-Gly-Pro-Ala-Val-Ala-Val-Val-Gly-Gln-Ala-Thr-Gln-Ile-Ala-Lys-NH2 (KWKLFKKIEKVGQNIRDGIIKAGPAVAVVGQATQIAK-NH2) [Peptide 2] | 10.5% | did not induce phagocytosis | 65.6% | 42.7% | did not significantly change | 37.0% | did not significantly change | 2.1% | 15% | 10%
